Common to all, as to test: Antibacterial effectiveness in a standard microtitre test (MIC)
Assay type in all cases: cell-based

The subject of experiment [1] is Citrobacter freundii E8. The source says: (§1) Antibacterial effectiveness of the compounds of the Examples in a standard microtitre test.
Experiment [2] has as its system Staphylococcus aureus Russell.
Source text: as §1

Experiment [3] relates to Staphylococcus aureus 1517.
Source text: as §1

Experiment [4] concerns Salmonella typhimurium CR10. The following applies: Salmonella enterica.
Source text: as §1

The test system of experiment [5] is Enterobacter cloacae N1.
Source text: as §1

Experiment [6] has as its system Streptococcus faecalis I. Particulars: Enterococcus faecalis.
Source text: as §1

Experiment [7] concerns Escherichia coli JT 39. The following applies: JT39.
Source text: as §1

For experiment [8], the system named is Staphylococcus aureus Oxford.
Source text: as §1

Experiment [9] relates to Shigella sonnei MB 11967. The following applies: MB11967.
Source text: as §1

Experiment [10] has as its system Proteus mirabilis C977.
Source text: as §1

The subject of experiment [11] is Bacillus subtilis A.
Source text: as §1

Experiment [12] deals with Proteus rettgeri WM16. Particulars: Providencia rettgeri.
Source text: as §1

In experiment [13] the test system is Streptococcus pneumoniae CN33.
Source text: as §1

Experiment [14] has as its system Proteus vulgaris W091.
Source text: as §1

In experiment [15] the test system is Pseudomonas aeruginosa A.
Source text: as §1

The test system of experiment [16] is Streptococcus pyogenes CN10.
Source text: as §1

Experiment [17] has as its system Escherichia coli 0111.
Source text: as §1

For experiment [18], the system named is Escherichia coli ESS.
Source text: as §1

In experiment [19] the test system is Serratia marcescens US20.
Source text: as §1

Experiment [20] concerns Proteus morganii I580. Particulars: Morganella morganii.
Source text: as §1

The test system of experiment [21] is Klebsiella aerogenes A.
Source text: as §1

The subject of experiment [22] is Klebsiella aerogenes Ba 95 R+.
Source text: as §1

Experiment [23] has as its system Escherichia coli JT 4 R+.
Source text: as §1

Setting [24] is: Salmonella typhimurium CR10, read-out: MIC.
Setting [25] is: Streptococcus faecalis I, read-out: MIC.
Setting [26] is: Staphylococcus aureus Oxford, read-out: MIC.
Where [27] appears, read: Bacillus subtilis A, read-out: MIC.
The mark [28] stands for this setting: Proteus rettgeri WM16, read-out: MIC.
Setting [29] is: Pseudomonas aeruginosa A, read-out: MIC.
The mark [30] stands for this setting: Proteus morganii I580, read-out: MIC.

≈ marks a conversion by molar mass, not a printed value. Like-named read-outs stand apart in the source and are kept apart here. A value given as a limit tells only on which side of the number the result lay.

For `CC(=O)N/C=C/SC1=C(C(=O)[O-])N2C(=O)[C@H]([C@@H](C)OC=O)[C@H]2C1.[Na+]` [Example 6, Sodium (5R,6S)-3-(E-2-acetamidoethenylthio)-6-[(R)-1-formyloxyethyl]-7-oxo-1-azabicyclo[3.2.0]hept-2-ene-2-carboxylate], the minimal inhibitory concentration (MIC) in experiment [1] was 1.6 µg/mL; in experiment [2] (Staphylococcus aureus) it was 0.4 µg/mL; in [3], 12.5 µg/mL; in experiment [4] (TYPHIMURIUM) it was 3.1 µg/mL; in experiment [5] it was 6.2 µg/mL; in experiment [6] it was 12.5 µg/mL. Further, the MIC was 0.8 µg/mL in experiment [7] (Escherichia coli); 0.8 µg/mL in experiment [8] (Staphylococcus aureus); 1.6 µg/mL in experiment [9]; 6.2 µg/mL in experiment [10]; 0.8 µg/mL in experiment [11] (Bacillus subtilis); 3.1 µg/mL in [12] (WM16). In addition, the minimum inhibitory concentration (MIC) stood at 0.1 µg/mL in experiment [13]; 3.1 µg/mL in experiment [14]; 100 µg/mL in [15] (Pseudomonas aeruginosa); 0.2 µg/mL in experiment [16]; 1.6 µg/mL in experiment [17]; 0.4 µg/mL in experiment [18] (Escherichia coli). Besides, the figures for the MIC in [19], in [20] (I580) and in [21] (Klebsiella aerogenes) were 3.1 µg/mL, 6.2 µg/mL and 1.6 µg/mL, respectively.
Consider `CC(=O)N/C=C/SC1=C(C(=O)O)N2C(=O)[C@H]([C@@H](C)N)[C@H]2C1` [Example 2, (5R,6R)-3-[E-2-acetamidoethenylthio]-6-[(R)-1-aminoethyl]-7-oxo-1-azabicyclo[3.2.0]hept-2-ene-2-carboxylic acid], for which the minimum inhibitory concentration (MIC) is 2 µg/mL (≈ 6.42 µM) in experiment [22]; 2 µg/mL (≈ 6.42 µM) in experiment [1] (read-out: MIC); 8 µg/mL (≈ 25.7 µM) in [3] (read-out: MIC); 1 µg/mL (≈ 3.21 µM) in [4] (setting [24]); 2 µg/mL (≈ 6.42 µM) in experiment [23]; 2 µg/mL (≈ 6.42 µM) in [5] (read-out: MIC). Further, the minimal inhibitory concentration (MIC) in experiment [6] (setting [25]) turned out to be 4 µg/mL (≈ 12.8 µM); in experiment [7] (Escherichia coli), 0.5 µg/mL (≈ 1.61 µM); in experiment [8] (setting [26]), 0.5 µg/mL (≈ 1.61 µM); in [9] it was 1 µg/mL (≈ 3.21 µM); in experiment [10] (read-out: MIC), 4 µg/mL (≈ 12.8 µM); in [11] (setting [27]), 0.2 µg/mL (≈ 0.642 µM). For the same compound, the MIC turned out to be 4 µg/mL (≈ 12.8 µM) in experiment [12] (setting [28]); 4 µg/mL (≈ 12.8 µM) in experiment [14] (read-out: MIC); 62 µg/mL (≈ 199 µM) in experiment [15] (setting [29]); 0.5 µg/mL (≈ 1.61 µM) in [17]; 0.2 µg/mL (≈ 0.642 µM) in experiment [18] (Escherichia coli); 2 µg/mL (≈ 6.42 µM) in experiment [19] (read-out: MIC). In addition, the MIC in [20] (setting [30]) came out at 8 µg/mL (≈ 25.7 µM); in experiment [21] (Klebsiella aerogenes), 0.5 µg/mL (≈ 1.61 µM).
As to `CC(=O)N/C=C/SC1=C(C(=O)[O-])N2C(=O)[C@H]([C@@H](C)O)[C@H]2C1.[Na+]` [Example 5, Sodium (5R,6S)-3-(E-2-acetamidoethenylthio)-6-[(R)-1-hydroxyethyl]-7-oxo-1-azabicyclo[3.2.0]hept-2-ene-2-carboxylate], the minimal inhibitory concentration (MIC) is 0.5 µg/mL in experiment [1]; at most 0.5 µg/mL in experiment [2] (Staphylococcus aureus); 0.5 µg/mL in [4] (TYPHIMURIUM); 1 µg/mL in experiment [5]; 8 µg/mL in experiment [6]; 0.2 µg/mL in experiment [7] (Escherichia coli). Moreover, the MIC in experiment [8] (Staphylococcus aureus) was 0.2 µg/mL; in [9], at most 1 µg/mL; in [10], 2 µg/mL; in experiment [11] (Bacillus subtilis), 0.2 µg/mL; in [12] (WM16), 2 µg/mL; in experiment [13], 0.2 µg/mL. Besides, the MIC in experiment [14] was 2 µg/mL; in experiment [15] (Pseudomonas aeruginosa), 125 µg/mL; in experiment [16] it was 0.5 µg/mL; in [17], at most 0.5 µg/mL; in [18] (Escherichia coli), over 0.2 µg/mL; in experiment [19], 2 µg/mL. The values for the MIC in [20] (I580) and in experiment [21] (Klebsiella aerogenes) were 2 µg/mL and 0.5 µg/mL, respectively.
In the case of `CC(=O)NCCSC1=C(C(=O)O)N2C(=O)[C@H]([C@@H](C)N)[C@H]2C1` [Example 8, (5R,6R)-3-(2-Acetamidoethylthio)-6-[(R)-1-aminoethyl]-7-oxo-1-azabicyclo[3.2.0]hept-2-ene-2-carboxylic acid], the MIC is 16 µg/mL (≈ 51.1 µM) in [1] (read-out: MIC); 2 µg/mL (≈ 6.38 µM) in experiment [2] (Staphylococcus aureus Russell, read-out: MIC); 31 µg/mL (≈ 98.9 µM) in [3] (read-out: MIC); 8 µg/mL (≈ 25.5 µM) in experiment [4] (setting [24]); 16 µg/mL (≈ 51.1 µM) in experiment [5] (read-out: MIC); 16 µg/mL (≈ 51.1 µM) in [6] (setting [25]). Also, the MIC in experiment [7] (Escherichia coli JT 39, read-out: MIC) came to 8 µg/mL (≈ 25.5 µM); in experiment [8] (setting [26]) it was 4 µg/mL (≈ 12.8 µM); in [9] it was 8 µg/mL (≈ 25.5 µM); in [10] (read-out: MIC), 31 µg/mL (≈ 98.9 µM); in experiment [11] (setting [27]) it was 4 µg/mL (≈ 12.8 µM); in [12] (setting [28]) it was 16 µg/mL (≈ 51.1 µM). For the same compound, the MIC was determined as 2 µg/mL (≈ 6.38 µM) in [13] (read-out: MIC); 16 µg/mL (≈ 51.1 µM) in experiment [14] (read-out: MIC); 62 µg/mL (≈ 198 µM) in experiment [15] (setting [29]); 2 µg/mL (≈ 6.38 µM) in [16] (read-out: MIC); 16 µg/mL (≈ 51.1 µM) in experiment [17]; 4 µg/mL (≈ 12.8 µM) in [18] (Escherichia coli ESS, read-out: MIC). Moreover, the MIC in experiment [19] (read-out: MIC) is 16 µg/mL (≈ 51.1 µM); in experiment [20] (setting [30]), 16 µg/mL (≈ 51.1 µM); in experiment [21] (Klebsiella aerogenes A, read-out: MIC) it was 8 µg/mL (≈ 25.5 µM).

For the origin of these results see US4438036A, “β-Lactam antibiotics their preparation and their use” (priority 1980, dated 1984).
